Reference: US20190343828A1, “CAMPTOTHECIN PEPTIDE CONJUGATES” (SEATTLE GENETICS, INC., priority 2018, published 2019)

What was measured:
[1] = test system: melanoma cells (SK-MEL-5); assay: In vitro cytotoxicity, CellTiter-Glo 96 h, SK-MEL-5; details: Homo sapiens, SK-MEL-5, read-out: Cytotoxic potency as free drug, IC50, SK-MEL-5
Experimental: (§1) In vitro potency was assessed on multiple cancer cell lines. All cell lines were authenticated by STR profiling at IDEXX Bioresearch and cultured for no more than 2 months after resuscitation. Cells cultured in log-phase growth were seeded for 24 hours in 96-well plates containing 150 μl RPMI 1640 supplemented with 20% FBS. Serial dilutions of antibody-drug conjugates in cell culture media were prepared at 4× working concentrations, and 50 μl of each dilution was added to the 96-well plates. Following addition of test articles, cells were incubated with test articles for 4 days at 37° C. After 96 hours, growth inhibition was assessed by CellTiter-Glo® (Promega, Madison, Wis.) and luminescence was measured on a plate reader.
(§2) Cell viability was determined by CellTiter-Glo staining after 96 h exposure to ADC. […] Ag1 is an antibody targeting a ubiquitous and readily internalizable antigen on cancer cells, Ag2 is cAC10 antibody targeting CD30(+) cancer cells, Ag3 is h1F6 antibody targeting CD70(+) cancer cells, Ag4 is hMEM102 antibody targeting CD48(+) cancer cells, Ag5 is h20F3 antibody targeting NTB-A expressing cancer cells, and h00 is a non-binding control antibody.

[2] = test system: Burkitt's lymphoma cells (Ramos); assay: In vitro cytotoxicity, CellTiter-Glo 96 h, Ramos; details: Homo sapiens, read-out: Cytotoxic potency as free drug, IC50, Ramos
Experimental: as §1
(§3) Cell viability was determined by CellTiter-Glo staining after 96 h exposure to ADC.

[3] = test system: acute promyelocytic leukemia cells (HL-60); assay: In vitro cytotoxicity, CellTiter-Glo 96 h, HL-60; details: Homo sapiens, HL-60, read-out: Cytotoxic potency (IC50 class), HL-60
Experimental: as §1, §2

[4] = test system: multiple myeloma cells (MM.1R); assay: In vitro cytotoxicity, CellTiter-Glo 96 h, MM.1R; details: read-out: Cytotoxic potency (IC50 class), MM.1R
Experimental: as §1, §2

[5] = test system: Hodgkin's lymphoma cells (L540cy); assay: In vitro cytotoxicity, CellTiter-Glo 96 h, L540cy; details: read-out: Cytotoxic potency (IC50 class), L540cy
Experimental: as §1, §3

[6] = test system: pancreatic cancer cells (BxPC3); assay: In vitro cytotoxicity, CellTiter-Glo 96 h, BxPC3; details: Homo sapiens, BXPC-3, read-out: Cytotoxic potency (IC50 class), BxPC3
Experimental: as §1, §3

[7] = test system: multiple drug resistant acute promyelocytic leukemia cells (HL-60/RV); assay: In vitro cytotoxicity, CellTiter-Glo 96 h, HL60/RV; details: Homo sapiens, HL-60, read-out: Cytotoxic potency (IC50 class), HL60/RV
[8] = test system: acute myeloid leukemia cells (MOLM13); assay: In vitro cytotoxicity, CellTiter-Glo 96 h, MOLM13; details: Homo sapiens, MOLM-13, read-out: Cytotoxic potency as free drug, IC50, MOLM13
Experimental: as §1, §3

[9] = test system: renal carcinoma cells (786-O); assay: In vitro cytotoxicity, CellTiter-Glo 96 h, 786-O; details: Homo sapiens, 786-0, read-out: Cytotoxic potency (IC50 class), 786-O
[10] = test system: B-lymphocyte cancer cells (SU-DHL-4); assay: In vitro cytotoxicity, CellTiter-Glo 96 h, SU-DHL-4; details: Homo sapiens, SU-DHL-4, read-out: Cytotoxic potency as free drug, IC50, SU-DHL-4
Experimental: as §1, §2

[11] = test system: B-lymphocyte cancer cells (U266); assay: In vitro cytotoxicity, CellTiter-Glo 96 h, U266; details: Homo sapiens, U-266, read-out: Cytotoxic potency as free drug, IC50, U266

| SMILES | IC50 [1] | IC50 [2] | IC50 [3] | IC50 [4] | IC50 [5] | IC50 [6] | IC50 [7] | IC50 [8] | IC50 [9] | IC50 [10] | IC50 [11] |
| --- | --- | --- | --- | --- | --- | --- | --- | --- | --- | --- | --- |
| CC[C@@]1(O)C(=O)OCc2c1cc1n(c2=O)Cc2c-1nc1cc3c(cc1c2CNCCOCCOCCN)OCO3 [Compound 5y] | 1 to 10 nM | 0.1 to 1 nM | 10 to 100 nM | 1 to 10 nM | 1 to 10 nM | 1 to 10 nM | 10 to 100 nM | 1 to 10 nM | 1 to 10 nM | 1 to 10 nM | 1 to 10 nM |
| CC[C@@]1(O)C(=O)OCc2c1cc1n(c2=O)Cc2c-1nc1cc(F)c(C)c3c1c2[C@@H](NC(=O)CO)CC3 [Compound 8a] | 10 to 100 nM | 1 to 10 nM | 100 to 1000 nM | 1 to 10 nM | 1 to 10 nM | 10 to 100 nM | 10 to 100 nM | 10 to 100 nM | 1 to 10 nM | 1 to 10 nM | 10 to 100 nM |
| CC[C@@]1(O)C(=O)OCc2c1cc1n(c2=O)Cc2c-1nc1cc3c(cc1c2CN1CCOCC1)OCO3 [Compound 5g] | 1 to 10 nM | 0.1 to 1 nM | 1 to 10 nM | 1 to 10 nM | 1 to 10 nM | 1 to 10 nM | 1 to 10 nM | 1 to 10 nM | 1 to 10 nM | 1 to 10 nM | 1 to 10 nM |
| CCNCc1c2c(nc3cc4c(cc13)OCO4)-c1cc3c(c(=O)n1C2)COC(=O)[C@]3(O)CC [Compound 5a] | 1 to 10 nM | 1 to 10 nM | 10 to 100 nM | 1 to 10 nM | 1 to 10 nM | 1 to 10 nM | 1 to 10 nM | 1 to 10 nM | 1 to 10 nM | 1 to 10 nM | 1 to 10 nM |
| CCCc1c2c(nc3cc4c(cc13)OCO4)-c1cc3c(c(=O)n1C2)COC(=O)[C@]3(O)CC [Compound 6a] | 1 to 10 nM | 0.1 to 1 nM | 1 to 10 nM | 1 to 10 nM | 0.1 to 1 nM | 1 to 10 nM | 1 to 10 nM | 1 to 10 nM | 1 to 10 nM | 0.1 to 1 nM | 1 to 10 nM |
| CC[C@@]1(O)C(=O)OCc2c1cc1n(c2=O)Cc2c-1nc1cc3c(cc1c2C1CC1)OCO3 [Compound 6m] | 1 to 10 nM | 0.1 to 1 nM | 10 to 100 nM | 0.1 to 1 nM | 0.1 to 1 nM | 1 to 10 nM | 1 to 10 nM | 1 to 10 nM | 0.1 to 1 nM | 0.1 to 1 nM | 1 to 10 nM |
| CC[C@@]1(O)C(=O)OCc2c1cc1n(c2=O)Cc2c-1nc1cc3c(cc1c2C(C)C)OCO3 [Compound 6c] | 1 to 10 nM | 0.1 to 1 nM |  | 1 to 10 nM | 1 to 10 nM | 1 to 10 nM | 1 to 10 nM | 1 to 10 nM | 1 to 10 nM | 0.1 to 1 nM | 1 to 10 nM |
| CCCCCc1c2c(nc3cc4c(cc13)OCO4)-c1cc3c(c(=O)n1C2)COC(=O)[C@]3(O)CC [Compound 6h] | 1 to 10 nM | 0.1 to 1 nM | 10 to 100 nM | 1 to 10 nM | 1 to 10 nM | 1 to 10 nM | 10 to 100 nM | 10 to 100 nM | 0.1 to 1 nM | 0.1 to 1 nM | 1 to 10 nM |
| CC[C@@]1(O)C(=O)OCc2c1cc1n(c2=O)Cc2c-1nc1cc3c(cc1c2CNC12CC4CC(CC(C4)C1)C2)OCO3 [Compound 5s] | 10 to 100 nM | 10 to 100 nM | 100 to 1000 nM | 10 to 100 nM | 10 to 100 nM | 10 to 100 nM | 10 to 100 nM | 10 to 100 nM | 10 to 100 nM | 10 to 100 nM | 10 to 100 nM |
| CC[C@@]1(O)C(=O)OCc2c1cc1n(c2=O)Cc2c-1nc1cc3c(cc1c2C(C)(C)C)OCO3 [Compound 6l] | 1 to 10 nM | 0.1 to 1 nM | 1 to 10 nM | 1 to 10 nM | 1 to 10 nM | 1 to 10 nM | 1 to 10 nM | 1 to 10 nM | 1 to 10 nM | 1 to 10 nM | 1 to 10 nM |
| CC[C@@]1(O)C(=O)OCc2c1cc1n(c2=O)Cc2c-1nc1cc3c(cc1c2CNC1CCCCC1)OCO3 [Compound 5d] | 1 to 10 nM | 1 to 10 nM | 10 to 100 nM | 1 to 10 nM | 1 to 10 nM | 1 to 10 nM | 1 to 10 nM | 1 to 10 nM | 1 to 10 nM | 1 to 10 nM | 1 to 10 nM |
| CC[C@@]1(O)C(=O)OCc2c1cc1n(c2=O)Cc2c-1nc1cc3c(cc1c2CNC(=O)CO)OCO3 [Compound 4a] | 1 to 10 nM | 10 to 100 nM | 10 to 100 nM | 1 to 10 nM | 10 to 100 nM | 10 to 100 nM | 10 to 100 nM | 1 to 10 nM | 10 to 100 nM | 10 to 100 nM | 1 to 10 nM |
| CC[C@@]1(O)C(=O)OCc2c1cc1n(c2=O)Cc2c-1nc1cc3c(cc1c2CN(CCN)CCO)OCO3 [Compound 5q] | 100 to 1000 nM | 10 to 100 nM | 100 to 1000 nM | 10 to 100 nM | 10 to 100 nM | 100 to 1000 nM | 100 to 1000 nM | 10 to 100 nM | 10 to 100 nM | 10 to 100 nM | 10 to 100 nM |
| CC[C@@]1(O)C(=O)OCc2c1cc1n(c2=O)Cc2c-1nc1cc(F)c(C)c3c1c2[C@@H](N)CC3 [Compound 8b] | 1 to 10 nM | 0.1 to 1 nM | 10 to 100 nM | 1 to 10 nM | 1 to 10 nM | 1 to 10 nM | 10 to 100 nM | 10 to 100 nM | 1 to 10 nM | 1 to 10 nM | 1 to 10 nM |
| CC[C@@]1(O)C(=O)OCc2c1cc1n(c2=O)Cc2c-1nc1cc3c(cc1c2CN(C)C1CCCC[C@H]1NC)OCO3 (stereo partly shown) [Compound 5aa] | 10 to 100 nM | 1 to 10 nM | 100 to 1000 nM | 10 to 100 nM | 10 to 100 nM | 100 to 1000 nM | 100 to 1000 nM | 10 to 100 nM | 10 to 100 nM | 10 to 100 nM | 10 to 100 nM |
| CC[C@@]1(O)C(=O)OCc2c1cc1n(c2=O)Cc2c-1nc1cc3c(cc1c2CNC(=O)CN)OCO3 [Compound 4b] | 100 to 1000 nM | 10 to 100 nM | 100 to 1000 nM | 10 to 100 nM | 10 to 100 nM | 100 to 1000 nM |  | 10 to 100 nM | 100 to 1000 nM | 10 to 100 nM | 10 to 100 nM |
| CC[C@@]1(O)C(=O)OCc2c1cc1n(c2=O)Cc2c-1nc1cc3c(cc1c2CN(CCO)CCO)OCO3 [Compound 5p] | 10 to 100 nM | 1 to 10 nM | 100 to 1000 nM | 1 to 10 nM | 10 to 100 nM | 10 to 100 nM | 100 to 1000 nM | 10 to 100 nM | 10 to 100 nM | 10 to 100 nM | 10 to 100 nM |
| CC[C@@]1(O)C(=O)OCc2c1cc1n(c2=O)Cc2c-1nc1cc3c(cc1c2-c1ccc(F)cc1)OCO3 [Compound 6] | 1 to 10 nM | 0.1 to 1 nM |  | 1 to 10 nM | 0.1 to 1 nM | 1 to 10 nM | 0.1 to 1 nM | 0.1 to 1 nM | 1 to 10 nM | 0.1 to 1 nM | 1 to 10 nM |
| CCC(C)c1c2c(nc3cc4c(cc13)OCO4)-c1cc3c(c(=O)n1C2)COC(=O)[C@]3(O)CC (stereo partly shown) [Compound 6b] | 1 to 10 nM | 1 to 10 nM |  | 1 to 10 nM | 1 to 10 nM | 1 to 10 nM | 1 to 10 nM | 1 to 10 nM | 1 to 10 nM | 1 to 10 nM | 1 to 10 nM |
| CC[C@@]1(O)C(=O)OCc2c1cc1n(c2=O)Cc2c-1nc1cc3c(cc1c2CNC(=O)[C@@H](N)CCC(=O)O)OCO3 [Compound 4e] |  | 100 to 1000 nM |  |  | 100 to 1000 nM | 100 to 1000 nM |  | 100 to 1000 nM |  |  |  |
| CC[C@@]1(O)C(=O)OCc2c1cc1n(c2=O)Cc2c-1nc1cc3c(cc1c2CNCCNC(C)C)OCO3 [Compound 5m] | 100 to 1000 nM | 1 to 10 nM | 100 to 1000 nM | 10 to 100 nM | 10 to 100 nM | 100 to 1000 nM |  | 10 to 100 nM | 10 to 100 nM | 10 to 100 nM | 10 to 100 nM |
| CC[C@@]1(O)C(=O)OCc2c1cc1n(c2=O)Cc2c-1nc1cc3c(cc1c2CNC(=O)CCN)OCO3 [Compound 4d] | 10 to 100 nM | 10 to 100 nM | 100 to 1000 nM | 1 to 10 nM | 100 to 1000 nM | 100 to 1000 nM |  | 10 to 100 nM | 100 to 1000 nM | 10 to 100 nM | 10 to 100 nM |
